The test system of experiment [1] is M14 (amelanotic melanoma) cells. The experiment can be described thus: antiproliferation assay (72 h, CELLTITER 96), M14. In kind it is cell-based, human. The following applies: Homo sapiens. In a few lines:
(§1)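 Human M14 melanoma and NCI-H460 lung carcinoma cells in RPMI-1640/10% FBS, seeded at 5×10^2–5×10^4 cells/well and adhered overnight, then exposed to seven compound concentrations for 72 h at 37 °C. Viable cells read by CellTiter 96 AQueous (MTS); IC50 = concentration giving 50% of maximal growth inhibition.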

In experiment [2] the test system is NCI-H460 (large cell lung carcinoma) cells. The experiment can be described thus: antiproliferation assay (72 h, CELLTITER 96), NCI-H460. In kind it is cell-based, human. The following applies: Homo sapiens, read-out: NCI-H460 IC50. Put shortly:
as §1

IC50 data for twelve compounds are collected here from patent US9562031B1, “Phenethyldihydrobenzodioxolones and methods of use” (Sequoia Sciences, Inc., priority 2015, dated 2017).

pIC50: −log10 of the molar value. Like-named read-outs stand apart in the source and are kept apart here. A value given as a limit tells only on which side of the number the result lay.

Take `C=CC[C@H]1C[C@]2([C@@H](C)Cc3ccc4c(c3)OCO4)OCOC2=CC1=O` [Compound 83, (6S,7aR)-6-allyl-7a-((S)-1-(benzo[d][1,3]dioxol-5-yl)propan-2-yl)-7,7a-dihydrobenzo[d][1,3]dioxol-5(6H)-one]: the pIC50 (usually the IC50 on a negative log10 scale, so that one unit is a factor of ten) in experiment [1] (Table 8) was 6.19; in experiment [2] (NCI-H460, Table 8), 6.41.

For the compound `C=CC[C@H]1C[C@]2([C@H](C)Cc3ccc(OC)c4occc34)OCOC2=CC1=O` [Compound 84, (6S,7aR)-6-allyl-7a-((R)-1-(7-methoxybenzofuran-4-yl)propan-2-yl)-7,7a-dihydrobenzo[d][1,3]dioxol-5(6H)-one], the negative-log IC50 (pIC50) in experiment [1] (Table 8) is less than 4.70; in experiment [2] (NCI-H460, Table 8), 5.59.

Consider `C=CC[C@H]1C[C@]2([C@@H](C)Cc3ccc(OC)c4occc34)OCOC2=CC1=O` [Compound 85, (6S,7aR)-6-allyl-7a-((S)-1-(7-methoxybenzofuran-4-yl)propan-2-yl)-7,7a-dihydrobenzo[d][1,3]dioxol-5(6H)-one], for which the pIC50 is 6.20 in experiment [1] (Table 8) and 6.14 in experiment [2] (NCI-H460, Table 8).

For the compound `C=CC[C@H]1C[C@]2([C@@H](C)Cc3ccc(OC)nc3)OCOC2=CC1=O` [Compound 86, (6S,7aR)-6-allyl-7a-((S)-1-(6-methoxypyridin-3-yl)propan-2-yl)-7,7a-dihydrobenzo[d][1,3]dioxol-5(6H)-one], the negative-log IC50 (pIC50) was 6.74 in experiment [1] (Table 8) and 6.48 in experiment [2] (NCI-H460, Table 8).

Turning to `C=CC[C@H]1C[C@]2([C@@H](CC)Cc3ccc(OC)c(OC)c3)OCOC2=CC1=O` [Compound 87, (6S,7aR)-6-allyl-7a-(1-(3,4-dimethoxyphenyl)butan-2-yl)-7,7a-dihydrobenzo[d][1,3]dioxol-5(6H)-one], the pIC50 in experiment [1] (Table 8) was 5.59; in experiment [2] (NCI-H460, Table 8) it was 4.96.

Take `C=CC[C@H]1C[C@]2(C(C)Cc3ccc(OC)c(OC)c3)OCOC2=C(C)C1=O` (stereo partly drawn) [Compound 88, (6S,7aR)-6-allyl-7a-(1-(3,4-dimethoxyphenyl)propan-2-yl)-4-methyl-7,7a-dihydrobenzo[d][1,3]dioxol-5(6H)-one]: the pIC50 was 5.38 in experiment [1] (Table 8) and 5.34 in experiment [2] (NCI-H460, Table 8).

Consider `C=CC[C@H]1C[C@]2([C@H](C)Cc3cc(F)c(OC)cc3F)O[C@H](C)OC2=CC1=O` [Compound 89, (2R,6S,7aR)-6-allyl-7a-((R)-1-(2,5-difluoro-4-methoxyphenyl)propan-2-yl)-2-methyl-7,7a-dihydrobenzo[d][1,3]dioxol-5(6H)-one], for which the pIC50 in experiment [1] (Table 8) is less than 4.70; in experiment [2] (NCI-H460, Table 8), 5.16.

On to `COc1ccc(C[C@H](C)[C@]23C[C@H](CC=C(C)C)C(=O)C=C2OCO3)cc1OC` [Compound 90], for which the pIC50 in experiment [1] (Table 7) was 5.15; in experiment [2] (NCI-H460, Table 7) it was 5.10.

On to `C=CC[C@H]1C[C@]2([C@@H](C)Cc3cc(-c4ccccc4)c(OC)cc3F)OCOC2=CC1=O` [Compound 91, (6S,7aR)-6-allyl-7a-((S)-1-(4-fluoro-6-methoxy-[1,1′-biphenyl]-3-yl)propan-2-yl)-7,7a-dihydrobenzo[d][1,3]dioxol-5(6H)-one], for which the negative logarithm of the IC50 (pIC50) is less than 4.70 in experiment [1] (Table 3) and less than 4.70 in experiment [2] (NCI-H460, Table 3).

With `C=CC[C@H]1C[C@]2(C(C)Cc3cc(C(=O)O)c(OC)cc3F)OCOC2=CC1=O` (stereo partly drawn) [Compound 92, 5-(2-((3aR,5S)-5-allyl-6-oxo-3a,4,5,6-tetrahydrobenzo[d][1,3]dioxol-3a-yl)propyl)-4-fluoro-2-methoxybenzoic acid], the negative logarithm of the IC50 (pIC50) is less than 4.70 in experiment [1] (Table 3) and less than 4.70 in experiment [2] (NCI-H460, Table 3).

`C=CC[C@H]1C[C@]2([C@H](C)Cc3cc(C(=O)N(C)C)c(OC)cc3F)OCOC2=CC1=O` [Compound 93, 5-((R)-2-((3aR,5S)-5-allyl-6-oxo-3a,4,5,6-tetrahydrobenzo[d][1,3]dioxol-3a-yl)propyl)-4-fluoro-2-methoxy-N,N-dimethylbenzamide]: the pIC50 in experiment [1] (Table 3) was less than 4.70; in experiment [2] (NCI-H460, Table 3) it was less than 4.70.

Take `C=CC[C@H]1C[C@]2([C@@H](C)Cc3cc(C(=O)N(C)C)c(OC)cc3F)OCOC2=CC1=O` [Compound 94, 5-((S)-2-((3aR,5S)-5-allyl-6-oxo-3a,4,5,6-tetrahydrobenzo[d][1,3]dioxol-3a-yl)propyl)-4-fluoro-2-methoxy-N,N-dimethylbenzamide]: the pIC50 is less than 4.70 in experiment [1] (Table 3) and less than 4.70 in experiment [2] (NCI-H460, Table 3).
